According to EP0719552A2, “Pharmaceutical composition comprising a quinone derivative or a hydroquinone thereof for treating dermatitis” (Takeda Chemical Industries, Ltd., priority 1994, dated 1996):

Experiments:
[1] = tested on: ascaris-immunized mouse splenocytes; assay: Ascaris-immunized mouse splenocytes (in vivo dosing): DNP-ascaris specific growth response, MTT; parameters: species or system Balb/c mice; conditions: 100 mg/kg/day orally 5 times weekly for 3 weeks; splenocytes cultured with 12.5 µg/ml DNP-ascaris 3 days; absorbance of non-sensitized splenocytes taken as 1 (sensitized 0.5% MC control 5.52)
Experimental: Method: Female Balb/c mice at 9 weeks of age (purchased from Shizuoka Laboratory Animal Center, Japan) were intraperitoneally administered 40 µg/mouse DNP-ascaris (2,4-dinitrophenylated ascaris extract, produced by LSL) together with Freund's complete adjuvant (FCA, produced by Difco, USA), 3 weeks later, splenocytes were collected. The compound 1((±)-7-(3,5,6-trimethyl-1,4-benzoquino-2-yl)-7-phenylheptonoic acid) was suspended in 0.5% methyl cellulose (MC) and orally administered at 100 mg/kg/day 5 times weekly for 3 weeks, starting at the day before DNP-ascaris administration. After final oral administration, the splenocyte mixture was prepared from the spleens of 5 animals per group, and suspended in RPMI-1640 medium (produced by Bio Whittaker, Inc., USA) containing inactivated fetal bovine serum (10% v/v, produced by Difco, USA), 2-mercaptoethanol (50 µM), L-glutamine (2 mM) and gentamicin (20 µg/ml) to yield a single cell suspension. After cell number was set to 3.3 × 10^6 cells/ml, DNP-ascaris was added to 96-well round-bottomed plates (produced by Sumitomo Bakelite Co., Ltd., Japan) at 12.5 µg/ml, and cultured at 37°C for 3 days in an incubator containing 5% carbon dioxide. […] To this culture, a 10% SDS-0.01N HCl mixture was added at 50 µl per well, followed by incubation in the carbon dioxide incubator for 18 hours, after which absorbance at 620 nm was determined.

IL-4 [2] = assay: Ascaris-immunized mouse splenocytes (in vivo dosing): IL-4 production, ELISA; parameters: species or system Balb/c mice; conditions: 100 mg/kg/day orally 5 times weekly for 3 weeks; splenocytes cultured with 40 µg/ml DNP-ascaris 3 days; non-sensitized taken as 1 (sensitized 0.5% MC control 15.8)
Experimental: (§1) Method: Female Balb/c mice at 9 weeks of age (purchased from Shizuoka Laboratory Animal Center, Japan) were intraperitoneally administered 40 µg/mouse DNP-ascaris (2,4-dinitrophenylated ascaris extract, produced by LSL) together with Freund's complete adjuvant (FCA, produced by Difco, USA), 3 weeks later, splenocytes were collected. The compound 1((±)-7-(3,5,6-trimethyl-1,4-benzoquino-2-yl)-7-phenylheptonoic acid) was suspended in 0.5% methyl cellulose (MC) and orally administered at 100 mg/kg/day 5 times weekly for 3 weeks, starting at the day before DNP-ascaris administration. […] To this culture, a 10% SDS-0.01N HCl mixture was added at 50 µl per well, followed by incubation in the carbon dioxide incubator for 18 hours, after which absorbance at 620 nm was determined.
(§2) Next, DNP-ascaris was added to a 1.2 × 10^6 cells/ml splenocyte suspension in each 96-well round-bottomed plate at 40 µg/ml and cultured at 37°C for 3 days in the 5% carbon dioxide incubator. After this culture was centrifuged at 200 x g for 5 minutes, the culture supernatant was collected, and, the amounts of IL-4 and IL-5 produced in each supernatant were determined by ELISA [mouse IL-4 ELISA kit (produced by Endogen, USA); mouse IL-5 ELISA kit (produced by Endogen, USA)].

IL-5 [3] = assay: Ascaris-immunized mouse splenocytes (in vivo dosing): IL-5 production, ELISA; parameters: species or system Balb/c mice; conditions: 100 mg/kg/day orally 5 times weekly for 3 weeks; splenocytes cultured with 40 µg/ml DNP-ascaris 3 days; non-sensitized taken as 1 (sensitized 0.5% MC control 43.3)
Experimental: as §1, §2

[4] = tested on: ascaris-immunized mouse splenocytes; assay: Ascaris-immunized mouse splenocytes (in vitro): DNP-ascaris stimulated growth, MTT; type: cell-based, Balb/c mice; conditions: Splenocyte, 72 h, 25 µM test drug, 12.5 µg/ml DNP-ascaris, 3 days, absorbance in absence of compound taken as 100%, read-out: Suppression Rate (%) MTT
Experimental: (§3) Method: Female Balb/c mice at 9 weeks of age (purchased from Shizuoka Laboratory Animal Center, Japan) were intraperitoneally administered 40 µg/mouse DNP-ascaris (2,4-dinitrophenylated ascaris extract, produced by LSL), together with Freund's complete adjuvant (FCA, produced by Difco, USA), and, 3 weeks later, splenocytes were collected. Splenocyte mixture was prepared from the spleens and suspended in RPMI-1640 medium (produced by Bio Whittaker, Inc., USA) containing inactivated fetal bovine serum (10% v/v, produced by Difco, USA), 2-mercaptoethanol (50 µM), L-glutamine (2 mM) and gentamicin (20 µg/ml) to yield a single cell suspension. After cell number was set to 3.3 × 10^6 cells/ml, DNP-ascaris was added to 96-well round-bottomed plates (produced by Sumitomo Bakelite Co., Ltd., Japan) containing a 25 µM test drug, at 12.5 µg/ml, and cultured at 37°C for 3 days in a 5% carbon dioxide incubator. After completion of cultivation, 3-(4,5-dimethylthiazol-2-yl)-2,5-diphenyl-tetrazolium bromide (MTT, produced by Dojin Kenkyujo, Japan) in PBS buffer was added to each well at 0.86 mg/ml, followed by cultivation in the carbon dioxide incubator for 6 hours. To this culture, a 10% SDS-0.01 N HCl mixture was added at 50 µl per well, followed by incubation in the carbon dioxide incubator for 18 hours, after which absorbance at 620 nm was determined.

IL-4 [5] = assay: Ascaris-immunized mouse splenocytes (in vitro): IL-4 production, ELISA; type: cell-based, Balb/c mice; conditions: Splenocyte, 72 h, 25 µM drug, 40 µg/ml DNP-ascaris, 3 days, production in absence of compound taken as 100%, read-out: Suppression Rate (%) IL-4
Experimental: as §3
as §2, with “plate containing a drug (25 µM),” for “plate”, “µg/ml,” for “µg/ml”, “amount” for “amounts”, “IL-4” for “IL-4 and IL-5”, “was” for “were”, “Endogen,” for “Endogen, USA); mouse IL-5 ELISA kit (produced by Endogen,”

[6] = tested on: ovalbumin-immunized mouse splenocytes; assay: Ovalbumin-immunized mouse splenocytes (oral dosing): OVA-specific growth response, MTT; type: in vivo, Balb/c mice; conditions: 100 mg/kg orally for two weeks; splenocytes cultured with 10 ug/ml OVA 3 days; non-sensitized taken as 1 (sensitized 0.5% MC control 2.07)
Experimental: Method: Seven-week-old made Balb/c mice (Charles River Japan) were used. Mice were immunized i.p. with 1 ug ovalbumin (OVA, albumin chicken egg grade III; Sigma, USA) in aluminium hydroxide hydrate gel suspension (Alum, ISL Co., Ltd., Japan) twice at an unterval of a week. Two weeks after first immunization, spleens were asceptically removed, and single cell suspension was prepared in RPMI-1640 (Bio Whittaker, Inc., USA) containing 10% heat-inactivated fetal calf serum (FCS, Bio Whittaker, Inc., USA), 50 uM 2-mercaptoethanol, 2 mM L-glutamine, and 20 ug/ml gentamicin. Compound 1((+)-7-(3,5,6-trimethyl-1,4-benzoquino-2-yl)-7-phenylheptonoic acid) at 100 mg/kg suspended with 0.5% methyl cellulose (MC) was given orally in a volume of 10 ml/kg for two weeks from a day before first immunization. […]
To study the effect of drug on the proliferation, 50 ul of 3 mg/ml 3(4,5-dimethylthiazol-2-yl)-2,5-diphenyltetrazolium bromide (MTT, Dojinedo Labs., Japan) resolved in phosphate buffered saline (PBS) was added into each well for final 6 hours of culture. The culture was completed by added 50 ul of 10% SDS resolved into 0.1 N HCl solution and after kept in 37°C for 18 hours, the absorbance at 620 nm was measured.

IL-4 [7] = assay: Ovalbumin-immunized mouse splenocytes (oral dosing): IL-4 production, ELISA; type: in vivo, Balb/c mice; conditions: 100 mg/kg orally for two weeks, 10 ug/ml OVA 3 days
Experimental: (§4) Method: Seven-week-old made Balb/c mice (Charles River Japan) were used. Mice were immunized i.p. with 1 ug ovalbumin (OVA, albumin chicken egg grade III; Sigma, USA) in aluminium hydroxide hydrate gel suspension (Alum, ISL Co., Ltd., Japan) twice at an unterval of a week. Two weeks after first immunization, spleens were asceptically removed, and single cell suspension was prepared in RPMI-1640 (Bio Whittaker, Inc., USA) containing 10% heat-inactivated fetal calf serum (FCS, Bio Whittaker, Inc., USA), 50 uM 2-mercaptoethanol, 2 mM L-glutamine, and 20 ug/ml gentamicin. Compound 1((+)-7-(3,5,6-trimethyl-1,4-benzoquino-2-yl)-7-phenylheptonoic acid) at 100 mg/kg suspended with 0.5% methyl cellulose (MC) was given orally in a volume of 10 ml/kg for two weeks from a day before first immunization. Splenocytes (3.3 × 10^6 cells) were cultured with 10 ug/ml OVA in […] wells of a 96-well round-bottomed tissue culture plate (Sumitomo Bakelite Co., Ltd., Japan) and were kept in a humidified incubation at 37°C in 5% CO2 in air for three days.
(§5) To study the effect of the drug on the cytokine production, after centrifuged at 200×g for 5 minutes, the supernatant of the culture well was removed and its IL-4 and IL-5 contents were measured by ELISA kits (Endogen, USA).

IL-5 [8] = assay: Ovalbumin-immunized mouse splenocytes (oral dosing): IL-5 production, ELISA; type: in vivo, Balb/c mice; conditions: 100 mg/kg orally for two weeks, 10 ug/ml OVA 3 days
Experimental: as §4, §5

IL-5 mRNA = IL-5 mRNA expression in ovalbumin-immunized mouse splenocytes (oral dosing), RT-PCR; type: in vivo, Balb/c mice; conditions: 10 and 100 mg/kg orally for two weeks; splenocytes cultured with 10 ug/ml OVA for 4, 7 and 24 hours; Fig. 1
Experimental: Method: Eight-week-old male Balb/c mice (Charles River Japan) immunized i.p. with 1 ug OVA absorbed to 1 mg Alum twice at an unterval of a week. Two weeks after the first immunization, splenocytes were prepared in RPMI-1640 (BioWhittaker, Inc., USA) containing 10% heat-inactivated fetal bovine serum (FBS, Bio Whittaker, Inc., USA), 50 uM 2-mercaptoethanol, 2 mM L-glutamine, and 20 ug/ml gentamicin. Compound 1 ((±)-7-(3,5,6-trimethyl-1,4-benzoquino-2-yl)-7-phenylheptonoic acid) at 10 and 100 mg/kg suspended with 0.5% methyl cellulose (MC) was given orally in a volume of 20 ml/kg for two weeks from a day before first immunization. […] Following the heat inactivation at 95°C for 10 min, one fifth of the cDNA mixtures was amplified by Ex Taq DNA polymerase (Takara Shuzoh, Japan) with the appropriate oligonucleatide primers (mouse IL-5 and β-actin amplimer set (Clontech). A DNA Thermal Cycler (Perkin Elmer) was used for 50 DNA amplification cycles, with a denaturation step at 95°C for 1 min, an annealing step at 55°C for 2 min, and an extension step at 72°C for 3 min. Twenty percent of the amplified DNA was analyzed by electrophoresis in a 2% GTG agarose gel. After staining with ethidium bromide, the DNA band was photographed under UV light. The data of the negatives were analyzed by NIH Image 1.55 software. […]

Compound	inhibition at 25 µM [4] [%]	inhibition at 25 µM (IL-4 [5]) [%]	also measured
CC1=C(C)C(=O)C(C(CCCCCC(=O)O)c2ccccc2)=C(C)C1=O (racemic) [Compound 1, (±)-7-(3,5,6-trimethyl-1,4-benzoquinon-2-yl)-7-phenylheptanoic acid]	44	15	DNP-ascaris Specific Growth Response, Relative Value [1]: 3.37; Cytokine Production, Relative Value IL-4 (IL-4 [2]): 9.21; Cytokine Production, Relative Value IL-5 (IL-5 [3]): 13.6; OVA-Specific Growth Response, Relative Value [6]: 1.75; Cytokine Production, Relative Value Exp. 1 IL-4 (IL-4 [7]; Exp. 1, non-sensitized taken as 1 (sensitized 0.5% MC control 24.7)): 7.7; Cytokine Production, Relative Value Exp. 2 IL-4 (IL-4 [7]; Exp. 2, non-sensitized taken as 1 (sensitized 0.5% MC control 14.2)): 6.94; Cytokine Production, Relative Value Exp. 1 IL-5 (IL-5 [8]; Exp. 1, non-sensitized taken as 1 (sensitized 0.5% MC control 7.3)): 4.8; Cytokine Production, Relative Value Exp. 2 IL-5 (IL-5 [8]; Exp. 2, non-sensitized taken as 1 (sensitized 0.5% MC control 31.8)): 21.7; antigen-stimulated IL-5 mRNA expression (ratio to β-actin PCR product) (IL-5 mRNA): inhibits antigen-stimulated IL-5 mRNA expression
CC1=C(C)C(=O)C(C(CCCCCCC(=O)O)c2ccccc2)=C(C)C1=O (stereo not drawn) [Compound 2]	40	38	–
CC1=C(C)C(=O)C(C(CCC(=O)O)c2ccccc2)=C(C)C1=O (stereo not drawn) [Compound 3]	36	38	–
CC1=C(C)C(=O)C(C(CCCCCCCCC(=O)O)c2ccccc2)=C(C)C1=O (stereo not drawn) [Compound 4]	60	87	–
COC1=C(OC)C(=O)C(C(CCCCCO)c2ccc(OC)cc2)=C(C)C1=O (stereo not drawn) [Compound 5]	46	80	–
COC1=C(OC)C(=O)C(C(CCCCCC(=O)O)c2ccc(C(C)C)cc2)=C(C)C1=O (stereo not drawn) [Compound 6]	33	57	–
